Earlier results, collected in patent US20050137163A1, “Modified hyaluronic acid for use in musculoskeletal tissue repair” (priority 2003, published 2005).

Settings: investigated previously as an antimicrobial agent

- concentration shown to be safe: up to 0.1 % weight
Substance: benzalconium chloride [BzCl]
